Patent US9487520B2, “Coelenterazine derivatives and methods of using same” (PROMEGA CORPORATION, priority 2010, dated 2016)

Legend:
Jurkat cells = assay: Measuring metabolically active cells using quinone coelenterazine derivatives; type: cell-based; conditions: two-fold serial dilutions of Jurkat cells; stocks 50 μM (40) and 100 μM (50); 30 minutes at 37° C.; Oplophorus luciferase detection reagent
Text: Viable cells maintain a metabolically active state that is inevitably lost when cells are damaged. Upon entering the living cells, the quinone coelenterazine is reduced to a coelenterazine derivative that is a substrate for a coelenterazine-utilizing luciferase, e.g., Oplophorus or Renilla luciferase. Conversion of the quinone coelenterazine is proportional to the number of metabolically active cells, and therefore can be measured quantitatively by monitoring light produced by luciferase reaction.
Two-fold serial dilutions of Jurkat cells were prepared in PBS, and 50 μl per well transferred to wells in 96-well plates. Compounds 40 and 50 were diluted in PBS to make 50 μM and 100 μM stocks, respectively. 10 μl of prepared compound stocks were added to the cells, and the cells were placed into 37° C., 5% CO2 incubator. Following 30 minutes incubation, the cells were removed from incubator, cooled at room temperature for 10 minutes, and 50 μl of Oplophorus luciferase detection reagent added directly to the wells. The samples were mixed, incubated at room temperature for 20 minutes, and luminescence measured.

caspase-3 [1] = biological target: T1, caspase-3 (Homo sapiens, UniProt P42574); assay: Caspase-3 detection with z-DEVD-coelenterazine-h and Renilla luciferase; type: biochemical; conditions: 25 μM substrate, 25 U/ml caspase-3, 3.25 ug/ml Renilla luciferase, measured over 110 minutes
T1 sequence (P42574 29-175 limits assumed): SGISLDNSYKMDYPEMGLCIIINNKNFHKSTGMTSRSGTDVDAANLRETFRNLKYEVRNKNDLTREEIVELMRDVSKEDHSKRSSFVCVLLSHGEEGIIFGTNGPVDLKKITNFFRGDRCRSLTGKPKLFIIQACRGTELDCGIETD
T1 sequence (P42574 176-277 limits assumed): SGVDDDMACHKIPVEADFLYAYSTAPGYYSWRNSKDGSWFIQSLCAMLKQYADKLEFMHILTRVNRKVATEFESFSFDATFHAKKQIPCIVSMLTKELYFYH
Protocol: Compound 21 (50 μM) was combined with Renilla luciferase (6.5 μg/ml, Renilla-GST fusion) in 50 mM HEPES buffer pH 7.2, 2 mM DTT, and 0.5% CHAPS and incubated for 20 minutes to remove any free coelenterazine derivatives that may be substrates for Renilla luciferase. Purified caspase-3 enzyme (50 U/ml) or buffer control was added in a 1:1 volume ratio for final concentrations of 25 μM Z-DEVD-coelenterazine h derivative substrate, 25 U/ml caspase-3 and 3.25 ug/ml luciferase. Luminescence was measured over 110 minutes.

caspase-3 [2] = biological target: T1, caspase-3; assay: Caspase 3 assay using Oplophorus luciferase variant 9B8 opt; type: biochemical; conditions: 23.5 μM substrate, OgLuc 9B8 opt lysate, with caspase-3
Protocol: (§1) An Oplophorus luciferase (OgLuc) variant, 9B8 opt, was used in a bioluminescent assay using a pro-coelenterazine substrate comprising the DEVD caspase-3 cleavage sequence. Purified caspase-3 enzyme was mixed with an E. coli lysate sample expressing the variant 9B8 opt, which was purified using the HALOLINK™ Resin (Promega Corp.) according to manufacturer's instructions, and diluted 10-fold in a buffer containing 100 mM MES pH 6.0, 1 mM CDTA, 150 mM KCl, 35 mM thiourea, 2 mM DTT, 0.25% TERGITOL® NP-9 (v/v), 0.025% MAZU®, with or without 23.5 μM z-DEVD-coelenterazine-h in 100 mM HEPES pH 7.5. The caspase-3 enzyme was incubated with the lysate sample for 3 hrs at room temperature, and luminescence detected on a Turner MODULUS™ luminometer at various time points. A sample containing only bacterial lysate and a sample containing only caspase-3 were used as controls. Three replicates were used.

caspase-3 [3] = assay: as above; type: biochemical; conditions: 23.5 μM substrate, OgLuc 9B8 opt lysate, no caspase-3
Protocol: as §1

Molecule | relationship between luminescence and cell number (Jurkat cells) | increase in luminescence relative to control samples that did not contain caspase (caspase-3 [1]) | luminescence, + caspase (caspase-3 [2]; 5.0 min) | luminescence, + caspase (caspase-3 [2]; 15.3 min) | luminescence, + caspase (caspase-3 [2]; 29.9 min) | luminescence, + caspase (caspase-3 [2]; 60.9 min) | luminescence, + caspase (caspase-3 [2]; 190.3 min) | luminescence, − caspase (caspase-3 [3]; 5.0 min) | luminescence, − caspase (caspase-3 [3]; 15.3 min) | luminescence, − caspase (caspase-3 [3]; 29.9 min) | luminescence, − caspase (caspase-3 [3]; 60.9 min) | luminescence, − caspase (caspase-3 [3]; 190.3 min)
CC1=C(C)C(=O)C(C(C)(C)CC(=O)N(C)CCN(C)C(=O)Oc2c(Cc3ccco3)nc3c(Cc4ccccc4)nc(-c4ccccc4)cn23)=C(C)C1=O [Compound 40] | linear correlation between cell number and luminescence |  |  |  |  |  |  |  |  |  |  | 
CC1=C(C)C(=O)C(C(C)(C)CC(=O)N(C)CCN(C)C(=O)Oc2c(Cc3ccccc3)nc3c(Cc4ccccc4)nc(-c4ccccc4)cn23)=C(C)C1=O [Compound 50] | linear correlation between cell number and luminescence |  |  |  |  |  |  |  |  |  |  | 
z-DEVD-coelenterazine-h [Compound 21] |  | one hundred-fold increase | 25,411 RLU | 36,906 RLU | 41,854 RLU | 43,370 RLU | 42,448 RLU | 26,023 RLU | 7,707 RLU | 4,013 RLU | 2,305 RLU | 1,155 RLU
